Reference: patent US5648360A, “Pentacyclic antihistamines” (Schering Corporation, priority 1994, dated 1997)

Tests used:
[1] = test system: PAF-induced platelet aggregation; assay: In vitro PAF antagonism assay (inhibition of PAF-induced platelet aggregation in platelet-rich plasma); type: cell-based; conditions: human PRP, PAF 1-5×10^-8 M
Method: In vitro Assay: Preparation of platelet-rich plasma (PRP): Human blood (50 ml) is collected from healthy male donors in an anticoagulant solution (5 ml) containing sodium citrate (3.8%) and dextrose (2%). Blood is centrifuged at 110 x g for 15 min. and the supematant (PRP) carefully transferred into a polypropylene tube. Platelet-poor-plasma (PPP) is prepared by centrifuging PRP at 12,000 x g for 2 min. (Beckman Microfuge B). PRP is used within 3 hours of drawing the blood.
Platelet Aggregation Assay: When an aggregating agent such as PAF is added to PRP, platelets aggregate. The aggregation assays are performed using a dual-channel aggregometer (Model 440, Chrono-Log Corp., Havertown, Pa.). PRP (0.45 ml) in aggregometer cuvettes is continually stirred (37° C.). Solutions of test compounds or vehicle are added to the PRP, and after incubation for 2 min., 10-15 μl aliquots of PAF solution are added so as to achieve a final concentration of 1-5×10^-8 M. Incubations are continued until the increase in light transmission reaches a maximum (usually 2 min). Values for inhibition are calculated by comparing maximal aggregation obtained in the absence and the presence of the compound. For each experiment, a standard PAF antagonist such as alprazolam is used as a positive internal control. The inhibitory concentration (IC50) is the concentration of compound in micromoles at which 50% of the aggregation is inhibited, as measured by the light transmission through each sample of PRP as compared to PPP.

[2] = biological target: T1, H1 (Cavia porcellus, UniProt P31389); assay: In vitro H1 antihistamine activity assay (inhibition of histamine spasmogenic activity in isolated ileal segments); set-up: species or system male Hartley guinea pigs; conditions: guinea pig ileum, antagonist 5 min before histamine curve
T1 construct: Ileal segments were removed from male Hartley guinea pigs; from tissue; host or cells: isolated ileal segments of male Hartley guinea pigs
T1 sequence (P31389 whole entry): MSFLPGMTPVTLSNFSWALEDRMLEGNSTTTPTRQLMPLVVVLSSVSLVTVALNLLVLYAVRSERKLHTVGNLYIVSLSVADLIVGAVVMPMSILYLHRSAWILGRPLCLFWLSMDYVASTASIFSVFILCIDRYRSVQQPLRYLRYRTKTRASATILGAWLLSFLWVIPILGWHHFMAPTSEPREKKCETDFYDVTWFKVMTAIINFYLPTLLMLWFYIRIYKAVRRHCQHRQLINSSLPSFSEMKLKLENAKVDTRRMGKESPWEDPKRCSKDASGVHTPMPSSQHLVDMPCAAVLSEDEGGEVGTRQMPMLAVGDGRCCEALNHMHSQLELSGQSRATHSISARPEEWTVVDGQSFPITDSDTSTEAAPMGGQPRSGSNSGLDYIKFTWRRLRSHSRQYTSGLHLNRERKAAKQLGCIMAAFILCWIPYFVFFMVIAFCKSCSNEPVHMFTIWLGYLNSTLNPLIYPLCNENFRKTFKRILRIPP
Method: In vitro assay: Ileal segments were removed from male Hartley guinea pigs (250-350 g) and suspended in 10 ml perfusion baths containing Tyrode's solution. The buffer was equilibrated with 95% O2 and 5% CO2 and maintained at a temperature of 37° C. The tissues were adjusted to 0.5-1 g tension and allowed to equilibrate for 30 min. All responses were recorded isometrically by means of a Grasse smooth muscle transducer and electronic recorder. Drugs were tested for their ability to inhibit the spasmogenic activity of histamine dihydrochloride. Two cumulative control log concentration-response curves for histamine (10^-7 -10^-5 M) were generated for each tissue. Antagonists were added to the bath and allowed to act for 5 min. before another histamine curve was generated.
Drugs were evaluated for their ability to inhibit histamine and thereby shift the response curve to the right. […] These values were used to determine relative potency.

IC50 [1] [µM]	Compound	inhibition at 50 µM [1] [%]	other results
–	CC(=O)N1CC[C@@H]2[C@H]3c4ncccc4CCc4cc(Cl)cc(c43)C(=O)[C@@H]2C1 (relative stereo) [Compound 10A]	15	–
~2.8	O=C(c1cc[n+]([O-])cc1)N1CC[C@H]2[C@@H](Cc3cc(Cl)cc4c3[C@@H]2c2ncccc2CC4)C1 (relative stereo) [Compound 20]	–	–
–	CC(=O)N1CC[C@H]2C(=O)c3cc(Cl)cc4c3[C@H](c3ncccc3CC4)[C@H]2C1 (relative stereo) [Compound 6A]	33	–
–	CC(=O)N1CC[C@@H]2C(=O)c3cc(Cl)cc4c3[C@H](c3ncccc3CC4)[C@H]2C1 (relative stereo) [Compound 6B]	49	–
–	CN1CC[C@@H]2[C@H]3c4ncccc4CCc4cc(Cl)cc(c43)C(=O)[C@@H]2C1 (relative stereo) [Compound 11A]	47	–
~300	CC(=O)N1CC[C@H]2[C@@H](Cc3cc(Cl)cc4c3[C@@H]2c2ncccc2CC4)C1 (relative stereo) [Compound 14B]	–	–
–	CN1CC[C@@H]2[C@H]3c4ncccc4CCc4cc(Cl)cc(c43)C(=O)[C@H]2C1 (relative stereo) [Compound 11B]	4	–
~3000	CC(=O)N1CC[C@H]2[C@H](Cc3cc(Cl)cc4c3[C@@H]2c2ncccc2CC4)C1 (relative stereo) [Compound 14A]	–	–
–	CC(=O)N1CC[C@H]2C(=Cc3cc(Cl)cc4c3[C@@H]2c2ncccc2CC4)C1 (relative stereo) [Compound 13]	23	–

Compound	IC50 [1] [µM]	inhibition at 50 µM [1] [%]	other results
CN1CC[C@H]2[C@@H](Cc3cc(Cl)cc4c3[C@@H]2c2ncccc2CC4)C1 (relative stereo) [Compound 17, 7-chloro-2,3,4,4a,5,9,10,14b,14c-decahydro-3-methylpyrido[2",3":7',6']-cyclohepta[1',2',3',:4,5]naphtho[2,3-c]pyridine]	~38	–	Ki ([2]; read-out: dissociation constant (Ki)): 0.001 µM; Kb ([2]; read-out: pA2 (converted)): 0.00141 µM
CN1CC[C@H]2C(=Cc3cc(Cl)cc4c3[C@@H]2c2ncccc2CC4)C1 (relative stereo) [Compound 16]	~5.5	–	–
